Assay results as given in ChEMBL document CHEMBL2074197, “Molecular and functional characterization of an organic anion transporting polypeptide cloned from human liver” (Gastroenterology, 1995).
One block for each compound: values may come before it.

What was measured:
[1] = target: T1, Solute carrier organic anion transporter family member 1A2 (OATP1A2) (Homo sapiens, UniProt P46721); assay: TP_TRANSPORTER: inhibition of BSP uptake (BSP: 10 uM, UDCA: 100 uM) in Xenopus laevis oocytes; assay type: functional, cell-based, Oocyte; design: scale not given: the % may be the effect or the level left; conditions: Xenopus laevis oocytes expressing OATP1A2 (SLCO1A2), probe BSP (sulfobromophthalein), read-out: Activity
T1 sequence (P46721 whole entry): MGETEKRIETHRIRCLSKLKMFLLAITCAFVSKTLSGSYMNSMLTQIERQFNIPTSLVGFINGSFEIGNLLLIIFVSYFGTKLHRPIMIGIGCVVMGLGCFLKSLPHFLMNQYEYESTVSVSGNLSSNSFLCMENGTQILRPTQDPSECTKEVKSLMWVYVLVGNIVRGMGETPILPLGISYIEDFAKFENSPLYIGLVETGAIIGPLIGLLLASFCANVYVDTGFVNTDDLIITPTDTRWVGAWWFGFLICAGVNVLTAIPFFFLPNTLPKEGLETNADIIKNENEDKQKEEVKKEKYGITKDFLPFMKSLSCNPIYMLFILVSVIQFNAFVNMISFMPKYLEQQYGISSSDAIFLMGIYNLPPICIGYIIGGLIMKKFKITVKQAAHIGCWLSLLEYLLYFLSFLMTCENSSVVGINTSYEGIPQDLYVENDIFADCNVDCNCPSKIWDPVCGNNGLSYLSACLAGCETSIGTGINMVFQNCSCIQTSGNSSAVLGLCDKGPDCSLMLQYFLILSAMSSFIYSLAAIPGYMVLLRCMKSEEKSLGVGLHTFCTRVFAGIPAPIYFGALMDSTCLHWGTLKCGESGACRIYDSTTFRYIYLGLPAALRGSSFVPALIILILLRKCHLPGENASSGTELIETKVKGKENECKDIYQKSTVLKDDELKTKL

[2] = target: T2, Solute carrier organic anion transporter family member 1A2 (Homo sapiens, UniProt P46721); assay: TP_TRANSPORTER: inhibition of Taurocholate uptake (Taurochorate: 10 uM, UDCA: 200 uM) in Xenopus laevis oocytes; assay type: functional, cell-based; design: scale not given: the % may be the effect or the level left; conditions: oocyte
T2 sequence (P46721 whole entry): T1 sequence (P46721 whole entry)

[3] = target: T2, Solute carrier organic anion transporter family member 1A2; assay: TP_TRANSPORTER: inhibition of BSP uptake (BSP: 10 uM, GC: 100 uM) in Xenopus laevis oocytes; assay type: functional, cell-based; design: scale not given: the % may be the effect or the level left; conditions: oocyte
[4] = target: T1, Solute carrier organic anion transporter family member 1A2 (OATP1A2); assay: TP_TRANSPORTER: inhibition of Taurocholate uptake (Taurochorate: 10 uM, GC: 200 uM) in Xenopus laevis oocytes; assay type: functional, cell-based, Oocyte; design: scale not given: the % may be the effect or the level left; conditions: Xenopus laevis oocytes expressing OATP1A2 (SLCO1A2), probe taurocholate, read-out: Activity
[5] = target: T1, Solute carrier organic anion transporter family member 1A2 (OATP1A2); assay: TP_TRANSPORTER: inhibition of Taurocholate uptake (Taurochorate: 10 uM, TCDC: 100 uM) in Xenopus laevis oocytes; assay type: functional, cell-based, Oocyte; design: scale not given: the % may be the effect or the level left; conditions: Xenopus laevis oocytes expressing OATP1A2 (SLCO1A2), probe taurocholate, read-out: Activity
[6] = target: T1, Solute carrier organic anion transporter family member 1A2 (OATP1A2); assay: TP_TRANSPORTER: inhibition of BSP uptake (BSP: 10 uM, TCDC: 100 uM) in Xenopus laevis oocytes; assay type: functional, cell-based, Oocyte; design: scale not given: the % may be the effect or the level left; conditions: Xenopus laevis oocytes expressing OATP1A2 (SLCO1A2), probe BSP (sulfobromophthalein), read-out: Activity
[7] = target: T1, Solute carrier organic anion transporter family member 1A2 (OATP1A2); assay: TP_TRANSPORTER: inhibition of Taurocholate uptake (Taurochorate: 10 uM, TUDC: 100 uM) in Xenopus laevis oocytes; assay type: functional, cell-based, Oocyte; design: scale not given: the % may be the effect or the level left; conditions: Xenopus laevis oocytes expressing OATP1A2 (SLCO1A2), probe taurocholate, read-out: Activity
[8] = target: T1, Solute carrier organic anion transporter family member 1A2 (OATP1A2); assay: TP_TRANSPORTER: inhibition of BSP uptake (BSP: 10 uM, TUDC: 100 uM) in Xenopus laevis oocytes; assay type: functional, cell-based, Oocyte; design: scale not given: the % may be the effect or the level left; conditions: Xenopus laevis oocytes expressing OATP1A2 (SLCO1A2), probe BSP (sulfobromophthalein), read-out: Activity
[9] = target: T1, Solute carrier organic anion transporter family member 1A2 (OATP1A2); assay: TP_TRANSPORTER: uptake in Xenopus laevis oocytes; assay type: functional, cell-based, Oocyte; conditions: Xenopus laevis oocytes expressing OATP1A2 (SLCO1A2)
[10] = target: T1, Solute carrier organic anion transporter family member 1A2 (OATP1A2); assay: TP_TRANSPORTER: inhibition of Taurocholate uptake (Taurochorate: 10 uM, ICG: 100 uM) in Xenopus laevis oocytes; assay type: functional, cell-based, Oocyte; design: scale not given: the % may be the effect or the level left; conditions: Xenopus laevis oocytes expressing OATP1A2 (SLCO1A2), probe taurocholate, read-out: Activity
[11] = target: T1, Solute carrier organic anion transporter family member 1A2 (OATP1A2); assay: TP_TRANSPORTER: inhibition of BSP uptake (BSP: 10 uM, ICG: 100 uM) in Xenopus laevis oocytes; assay type: functional, cell-based, Oocyte; design: scale not given: the % may be the effect or the level left; conditions: Xenopus laevis oocytes expressing OATP1A2 (SLCO1A2), probe BSP (sulfobromophthalein), read-out: Activity
[12] = target: T2, Solute carrier organic anion transporter family member 1A2; assay: TP_TRANSPORTER: inhibition of Taurocholate uptake (Taurochorate: 10 uM, CDCA: 200 uM) in Xenopus laevis oocytes; assay type: functional, cell-based; design: scale not given: the % may be the effect or the level left; conditions: oocyte
[13] = target: T2, Solute carrier organic anion transporter family member 1A2; assay: TP_TRANSPORTER: inhibition of BSP uptake (BSP: 10 uM, CDCA: 200 uM) in Xenopus laevis oocytes; assay type: functional, cell-based; design: scale not given: the % may be the effect or the level left; conditions: oocyte

Structure (SMILES): C[C@H](CCC(=O)O)[C@H]1CC[C@H]2[C@@H]3[C@@H](O)C[C@@H]4C[C@H](O)CC[C@]4(C)[C@H]3CC[C@]12C [URSODIOL]
activity at 100 µM [1]: 57%
Activity [2]: 14%

Structure (SMILES): CC1(C)C(/C=C/C=C/C=C/C=C2\N(CCCCS(=O)(=O)O)c3ccc4ccccc4c3C2(C)C)=[N+](CCCCS(=O)(=O)[O-])c2ccc3ccccc3c21 [INDOCYANINE GREEN]
activity at 100 µM [10]: 28%
activity at 100 µM [11]: 60%

Structure (SMILES): C[C@H](CCC(=O)O)[C@H]1CC[C@H]2[C@@H]3[C@H](O)C[C@@H]4C[C@H](O)CC[C@]4(C)[C@H]3CC[C@]12C [CHENODIOL]
Activity [12]: 15%
Activity [13]: 34%

Structure (SMILES): O=C1OC(c2ccc(O)c(S(=O)(=O)O)c2)(c2ccc(O)c(S(=O)(=O)O)c2)c2c(Br)c(Br)c(Br)c(Br)c21 [SULFOBROMOPHTHALEIN SODIUM]
Km [9]: 20 µM

The next lines start with the values.

Activity [3]: 81%
activity at 200 µM [4]: 24%
Structure (SMILES): C[C@H](CCC(=O)NCC(=O)O)[C@H]1CC[C@H]2[C@@H]3[C@H](O)C[C@@H]4C[C@H](O)CC[C@]4(C)[C@H]3C[C@H](O)[C@]12C [GLYCOCHOLIC ACID]

activity at 100 µM [5]: 28%
activity at 100 µM [6]: 17%
Structure (SMILES): C[C@H](CCC(=O)NCCS(=O)(=O)O)[C@H]1CC[C@H]2[C@@H]3[C@H](O)C[C@@H]4C[C@H](O)CC[C@]4(C)[C@H]3CC[C@]12C [TAUROCHENODEOXYCHOLATE]

activity at 100 µM [7]: 9%
activity at 100 µM [8]: 9%
Km [9]: 19 µM
Structure (SMILES): C[C@H](CCC(=O)NCCS(=O)(=O)O)[C@H]1CC[C@H]2[C@@H]3[C@@H](O)C[C@@H]4C[C@H](O)CC[C@]4(C)[C@H]3CC[C@]12C [TAURURSODIOL]
